Converted amounts (≈) assume the structure as drawn. Like-named read-outs stand apart in the source and are kept apart here.
Assays:
[1] = Human Liver Microsomal Stability (Test C); format: in vitro ADME; conditions: human, liver microsomes
Experimental: Human Liver Microsomal Stability (Test C)
The assay was conducted according to the Human Liver Microsome Stability Assay described in pages 170-174 of Wernevik, J. et al., “A Fully Integrated Assay Panel for Early Drug Metabolism and Pharmacokinetics Profiling”, Assay and Drug Development Technologies, 2020, 18(4), 157-179. Data are reported in Table 36 as CLint (μl/min/mg protein). Where the assay was run multiple times for the same compound, the arithmetic mean is reported.

[2] = Rat Hepatocyte Stability (Test E); format: in vitro ADME; conditions: rat, hepatocytes, geometric mean if run multiple times
Experimental: Rat Hepatocyte Stability (Test E)
The assay was conducted according to the Rat Hepatocyte Stability Assay described in pages 170-174 of Wernevik, J. et al., “A Fully Integrated Assay Panel for Early Drug Metabolism and Pharmacokinetics Profiling”, Assay and Drug Development Technologies, 2020, 18(4), 157-179. Data are reported in Table 36 as mean Clint(μl/min/10^6 cells). Where the assay was run multiple times for the same compound, the geometric mean is reported.

Solubility (Test F) = format: physicochemical; conditions: arithmetic mean if run multiple times
Experimental: The assay was conducted according to the Solubility Assay described in pages 164-167 of Wernevik, J. et al., “A Fully Integrated Assay Panel for Early Drug Metabolism and Pharmacokinetics Profiling”, Assay and Drug Development Technologies, 2020, 18(4), 157-179. Data are reported in Table 36 as solubility ([…]. Where the assay was run multiple times for the same compound, the arithmetic mean is reported.

human RXFP1 = biological target: T1, human RXFP1 (Homo sapiens, UniProt Q9HBX9); test: RXFP1 Hu cAMP (Test A); format: cell-based; design: expressed in transfected cells; host or cells: Jump-In T-REx CHO-K1 cells (ThermoFisher), induced with 10 ng/ml doxycycline for 24 h
T1 sequence (Q9HBX9 1-757): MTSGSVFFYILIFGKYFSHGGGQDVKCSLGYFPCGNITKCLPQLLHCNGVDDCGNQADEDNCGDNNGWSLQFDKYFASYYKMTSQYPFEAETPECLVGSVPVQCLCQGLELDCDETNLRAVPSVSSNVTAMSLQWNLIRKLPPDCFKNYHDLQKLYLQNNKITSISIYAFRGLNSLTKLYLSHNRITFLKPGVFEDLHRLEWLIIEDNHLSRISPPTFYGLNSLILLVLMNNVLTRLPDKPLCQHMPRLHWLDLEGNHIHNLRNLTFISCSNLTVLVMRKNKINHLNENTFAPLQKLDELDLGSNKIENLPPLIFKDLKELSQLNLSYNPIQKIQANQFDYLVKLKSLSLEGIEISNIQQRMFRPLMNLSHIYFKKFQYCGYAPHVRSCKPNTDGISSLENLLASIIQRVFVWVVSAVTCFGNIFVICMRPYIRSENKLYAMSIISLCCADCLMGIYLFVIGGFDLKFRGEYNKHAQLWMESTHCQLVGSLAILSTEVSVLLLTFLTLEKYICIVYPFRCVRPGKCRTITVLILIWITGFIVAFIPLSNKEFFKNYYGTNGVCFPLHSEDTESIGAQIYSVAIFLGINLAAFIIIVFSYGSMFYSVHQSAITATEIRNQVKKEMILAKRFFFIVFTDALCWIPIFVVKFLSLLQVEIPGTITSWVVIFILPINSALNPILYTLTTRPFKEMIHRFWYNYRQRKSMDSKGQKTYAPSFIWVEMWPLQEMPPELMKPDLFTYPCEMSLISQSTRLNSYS
Procedure, shortened: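 Competitive HTRF cAMP readout (2 h, room temperature) in CHO-K1 cells stably expressing human RXFP1, induced with 10 ng/ml doxycycline for 24 h; IBMX 0.5 mM final.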

[3] = Human Plasma Protein Binding (Test B); format: in vitro ADME; conditions: fraction unbound (fu)
Experimental: Human Plasma Protein Binding (Test B)
The assay was conducted according to the Human Plasma Protein Binding Assay described in pages 167-170 of Wernevik, J. et al., “A Fully Integrated Assay Panel for Early Drug Metabolism and Pharmacokinetics Profiling”, Assay and Drug Development Technologies, 2020, 18(4), 157-179. Data are reported in Table 36 as fraction unbound (fu) (% free). Where the assay was run multiple times for the same compound, the arithmetic mean is reported.

[4] = RXFP1 Hu cAMP, read-out: Test A EC50

Row | SMILES | microsomal CLint [1] [µL/min/mg] | hepatocyte CLint [2] [µL/min/1e6 cells] | solubility (Solubility (Test F)) [µM] | Test A Sinf (human RXFP1; RXFP1 Hu cAMP) [%] | EC50 (human RXFP1; [4]) [nM] | Test B Human Plasma Protein Binding (% free) [3] [% free] | EC50 (human RXFP1; Test A EC50, RXFP1 Hu cAMP) [nM]
1 | COc1cc(F)c(C[C@H]2CC[C@@](C)(C(=O)O)CC2)cc1C(=O)N[C@@H]1[C@H]2CC[C@H](C2)[C@@H]1C(=O)NCC1(C)CCC1 [Example 204, (1S,4s)-4-(2-fluoro-4-methoxy-5-(((1S,2R,3S,4R)-3-(((1-methylcyclobutyl)methyl)carbamoyl)bicyclo[2.2.1]heptan-2-yl)carbamoyl)benzyl)-1-methylcyclohexane-1-carboxylic acid] | 78 | 18 | 61 (≈ 33.1 µg/mL) |  |  | 0.29 | 
2 | COc1cc(F)c(O[C@H]2CC[C@@](C)(C(N)=O)CC2)cc1C(=O)N[C@@H]1[C@H]2CC[C@H](C2)[C@@H]1C(=O)NCC(C)(C)C [Example 53, (1R,2S,3R,4S)-3-(5-(((1s,4S)-4-Carbamoyl-4-methylcyclohexyl)oxy)-4-fluoro-2-methoxybenzamido)-N-neopentylbicyclo[2.2.1]heptane-2-carboxamide] | 130 | 150 | 39 (≈ 20.7 µg/mL) | 122 | 160 |  | 
3 | COc1cc(F)c(CC2CCC(C)(C(=O)O)CC2)cc1C(=O)NC1C2CCC(C2)C1C(=O)NCC1(C)CCC1 [Example 205, (1R,4r)-4-(2-fluoro-4-methoxy-5-(((1S,2R,3S,4R)-3-(((1-methylcyclobutyl)methyl)carbamoyl)bicyclo[2.2.1]heptan-2-yl)carbamoyl)benzyl)-1-methylcyclohexane-1-carboxylic acid] | 49 | 26 | 180 (≈ 97.7 µg/mL) |  |  | 0.58 | 
4 | COc1cc(F)c(O[C@H]2CC[C@@](C)(C(=O)O)CC2)cc1C(=O)N[C@@H]1CCC[C@@H]1C(=O)N[C@H](C)C(C)C [Example 60] | 7 | 11 | > 1000 | 105 |  |  | 
5 | COc1cc(F)c(O[C@H]2CC[C@@](C)(C(=O)O)CC2)cc1C(=O)N[C@@H]1CCC[C@@H]1C(=O)NC(C(C)C)C(C)C [Example 62] | 94 | 55 | > 1000 | 93 | > 4200 |  | 
6 | CC1(CNC(=O)[C@H]2[C@@H]3CC[C@@H](C3)[C@H]2NC(=O)c2cc(O[C@H]3CC[C@@](C)(C(=O)O)CC3)c(F)cc2OCF)CCC1 [Example 4, (1S,4s)-4-(2-Fluoro-4-(fluoromethoxy)-5-(((1S,2R,3S,4R)-3-(((1-methylcyclobutyl)methyl)carbamoyl)bicyclo[2.2.1]heptan-2-yl)carbamoyl)phenoxy)-1-methylcyclohexane-1-carboxylic acid] | 36 | 6.9 | > 1000 | 103 |  |  | 4.7
7 | COc1cc(F)c(O[C@H]2CC[C@@](C)(C(=O)O)CC2)cc1C(=O)N[C@@H]1CCC[C@@H]1C(=O)N[C@@H](C)C(C)(C)C [Example 61] | 7.4 | 13 | > 1000 | 96 | 15000 |  | 
8 | COc1cc(F)c(O[C@H]2CC[C@@](C)(C(=O)O)CC2)cc1C(=O)N[C@@H]1CCC[C@@H]1C(=O)N[C@@H](C)C1(C)CC1 (racemic) [Example 63] | 11 | 19 | 610 (≈ 316 µg/mL) |  | > 50000 |  | 

Second part, led by results:

Row | microsomal CLint [1] [µL/min/mg] | hepatocyte CLint [2] [µL/min/1e6 cells] | solubility (Solubility (Test F)) [µM] | Test A Sinf (human RXFP1; RXFP1 Hu cAMP) [%] | EC50 (human RXFP1; [4]) [nM] | SMILES | Test B Human Plasma Protein Binding (% free) [3] [% free] | EC50 (human RXFP1; Test A EC50, RXFP1 Hu cAMP) [nM]
9 | 20 | 16 | 860 (≈ 558 µg/mL) | 85 |  | COc1cc(F)c(-c2ccc(C(=O)O)c(C)c2)cc1C(=O)N[C@@H]1[C@H]2CC[C@H](C2)[C@@H]1C(=O)Nc1cccc(S(=O)(=O)C(F)(F)F)c1 [Example 246] |  | 
10 | 4.9 | 11 | > 1000 | 99 | 660 | COc1cc(F)c(O[C@H]2CC[C@@](C)(C(=O)O)CC2)cc1C(=O)N[C@@H]1CCC[C@@H]1C(=O)NCC(C)(C)C [Example 57, (1S,4s)-4-(2-Fluoro-4-methoxy-5-(((1R,2S)-2-(neopentylcarbamoyl)cyclopentyl)carbamoyl)phenoxy)-1-methylcyclohexane-1-carboxylic acid] |  | 
11 | < 3 | 16 | > 1000 | 100 | > 8400 | COc1cc(F)c(O[C@H]2CC[C@@](C)(C(=O)O)CC2)cc1C(=O)N[C@@H]1CCC[C@@H]1C(=O)N[C@@H](C)C(C)C [Example 55, (1S,4s)-4-(2-Fluoro-4-methoxy-5-(((1R,2S)-2-(((S)-3-methylbutan-2-yl)carbamoyl)cyclopentyl)carbamoyl)phenoxy)-1-methylcyclohexane-1-carboxylic acid] |  | 
12 | 74 | 67 | 870 (≈ 476 µg/mL) | 107 |  | COc1cc(F)c(O[C@H]2CC[C@@](C)(C(=O)O)CC2)cc1C(=O)N[C@@H]1CCC[C@@H]1C(=O)NCC1(C)CCCCC1 [Example 64] |  | 
13 |  |  | > 500 |  |  | COc1cc(F)c(O[C@H]2CC[C@@](C)(C(=O)O)CC2)cc1C(=O)N[C@@H]1[C@H]2CC[C@H](C2)[C@@H]1C(=O)NCC1(C)CCC1 [Example 1, (1S,4s)-4-(2-Fluoro-4-methoxy-5-(((1S,2R,3S,4R)-3-(((1-methylcyclobutyl)methyl)carbamoyl)bicyclo[2.2.1]heptan-2-yl)carbamoyl)phenoxy)-1-methylcyclohexane-1-carboxylic acid] | 4.3 | 
14 | 31 | 38 | 250 (≈ 157 µg/mL) | 105 | 190 | COc1cc(F)c(O[C@H]2CC[C@@H](C(=O)O)CC2)cc1C(=O)N[C@@H]1[C@H]2CC[C@H](C2)[C@@H]1C(=O)Nc1cc(C(F)(F)F)ccc1Cl [Example 26] |  | 
15 |  |  | 860 (≈ 468 µg/mL) |  |  | COc1cc(F)c(O[C@H]2CC[C@@](C)(C(=O)O)CC2)cc1C(=O)N[C@H]1[C@@H]2CC[C@@H](C2)[C@H]1C(=O)NCC1(C)CCC1 [Example 3, (1R,4s)-4-(2-Fluoro-4-methoxy-5-(((1R,2S,3R,4S)-3-(((1-methylcyclobutyl)methyl)carbamoyl)bicyclo[2.2.1]heptan-2-yl)carbamoyl)phenoxy)-1-methylcyclohexane-1-carboxylic acid] | 3.7 | 
16 | < 3 | 12 | > 1000 | 101 |  | COc1cc(F)c(O[C@H]2CC[C@@](C)(C(=O)O)CC2)cc1C(=O)N[C@@H]1CCC[C@@H]1C(=O)NCC(C)C [Example 66] |  | 
17 | 53 | 36 | 240 (≈ 159 µg/mL) | 111 | 100 | COc1cc(F)c(-c2ccc(CCC(=O)O)cc2)cc1C(=O)N[C@@H]1[C@H]2CC[C@H](C2)[C@@H]1C(=O)Nc1cccc(S(=O)(=O)C(F)(F)F)c1 [Example 244] |  | 

Reference: patent publication US11667602B2, “Compounds and their use” (AstraZeneca AB, priority 2020, dated 2023)
